{"source": "patent US11169138B2", "about": "“Nanopores with internal protein adaptors” (priority 2015, dated 2021)", "key": {"DHFRtag:MTX": {"target": "T1, DHFRtag:MTX (Escherichia coli, UniProt P0ABQ4, C152S/C85A)", "T1 construct": "Met-Ala-Ser-Ala (N); made in house; host or cells: E. cloni EXPRESS BL21(DE3) E. coli", "T1 sequence (P0ABQ4 1-159 C85A/C152S)": "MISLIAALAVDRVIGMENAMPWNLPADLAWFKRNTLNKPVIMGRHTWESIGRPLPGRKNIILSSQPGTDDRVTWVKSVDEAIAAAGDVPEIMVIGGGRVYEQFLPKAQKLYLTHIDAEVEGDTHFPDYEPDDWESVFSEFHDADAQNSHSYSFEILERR", "test": "Ligand binding to DHFRtag:MTX complex confined inside ClyA-AS nanopore, single-channel recording", "parameters": "species or system E. coli", "experimental": "(§1) The applied potential refers to the potential of the trans electrode. ClyA-AS nanopores were inserted into lipid bilayers from the cis compartment, which was connected to the ground electrode. The two compartments were separated by a 25 μm thick polytetrafluoroethylene film (Goodfellow Cambridge Limited) containing an orifice of ˜100 μm in diameter. The aperture was pretreated with ˜5 μl of 10% hexadecane in pentane and a bilayer was formed by the addition of ˜10 μL of 1,2-diphytanoyl-sn-glycero-3-phosphocholine (DPhPC) in pentane (10 mg/mL) to both electrophysiology chambers. Typically, the addition of 0.01-0.1 ng of oligomeric ClyA-AS to the cis compartment (0.5 mL) was sufficient to obtain a single channel. […] Electrical recordings were carried out in 150 mM NaCl, 15 mM Tris.HCl pH 8.0 (AlkB experiments) or 150 mM NaCl, 15 mM Tris.HCl pH 7.5 (DHFR experiments). The temperature of the recording chamber was maintained at 28° C. by water circulating through a metal case in direct contact with the bottom and sides of the chamber.\n(§2) Electrical signals from planar bilayer recordings were amplified using an Axopatch 200B patch clamp amplifier (Axon Instruments) and digitized with a Digidata 1440 A/D converter (Axon Instruments). Data were recorded by using the Clampex 10.4 software (Molecular Devices) and the subsequent analysis was carried out with the Clampfit software (Molecular Devices). Electrical recordings were performed in 150 mM NaCl, 15 mM Tris.HCl pH 8.0 (AlkB) or pH 7.5 (DHFR) by applying a 2 kHz low-pass Bessel filter and a 10 kHz sampling rate. For further analysis traces were filtered digitally with a Bessel (8-pole) low-pass filter with a 50 Hz cut-off. Residual current values (IRES%) were calculated from blocked pore current values (IB) and open pore current values (IO) as IRES %=100*IB/IO. IB and IO were determined from Gaussian fits to all point current histograms (0.05 pA bin size) for at least 15 individual protein blockades. ΔIRES % values were calculated from IRES % using propagation of errors.\n(§3) Current transitions from level 1 were analyzed with the “single-channel search” function in Clampfit. The detection threshold to collect the ligand-induced events for AlkB was set to 4 pA and events shorter than 10 ms were ignored. […] The resulting event dwell times (toff) and the time between events (ton) were binned together as cumulative distributions and fitted to a single exponential to retrieve the ligand-induced lifetimes (τoff) and the ligand-induced event frequencies (f=1/τon). The process of event collection was monitored manually. For AlkB, final values of τon and τoff were based on average values derived from at least 3 single channel experiments at each concentration. Each experiment analysed more than 8 AlkB blockades. At the low ligand concentrations (0.2 mM) about 100 ligand-binding events were measured. Otherwise more than 150 events were collected. […] Subsequently, the ton values were binned together as cumulative distributions and fitted to a single exponential fit to retrieve characteristic τon values. The values for koff represented in FIG. 2b and FIG. 4b were determined by taking the average±standard deviations of 1/toff of at least 3 single channel experiments. The values of the association rate constants (kon) were determined from the slope of the linear regression curves calculated from the dependency of the event frequencies (f=1/τon) on the ligand concentration (OriginLab, FIGS. 2b and 4b). Graphs were made with Origin (OriginLab Corporation) or Clampfit software (Molecular Devices)."}, "SBD1": {"target": "SBD1 (Lactococcus lactis, UniProt Q9CES5)", "test": "Asparagine binding to SBD1 inside type I ClyA-AS nanopore", "experimental": "The interaction of SBD1 with asparagine was sampled using type I ClyA-AS nanopores. ClyA-AS (C87A/L99Q/E103G/F166Y/I203V/C285S/K294R/H307Y). In 150 mM NaCl and 15 mM Tris-HCl (pH 7.5), the addition of 74 nM of SBD1 to the cis compartment of Type I ClyA-AS induced transient current blockades at negative applied potentials (trans). […] Every 3.5±0.1 s^−1 (mean±S.E., n=212) the current switched to Level II (Ires %=66.8±0.4%, N=5) with a lifetime of 109±1 ms (mean±S.E., n=340). The protein blockades released spontaneously after 4.2±1.8 s (mean±S.E., n=291).\nThe dissociation constant was determined by titrating the substrate and plotting the relative closed population (CL/(O+CL)), determined from the area of the all point current histogram, versus the concentration. […] The closing and opening rate constants were determined from the inverse of the open and closed state lifetimes respectively and were plotted versus the asparagine concentration. The closing rate was linearly dependent on the substrate concentration and the slope of the linear fit gave the kclosing=1.2×10^7 s^−1 M^−1."}, "[1]": {"target": "T2, AlkB-Fe^++ (E. coli AlkB demethylase) (Escherichia coli, UniProt P05050)", "T2 construct": "made in house; host or cells: E. cloni EXPRESS BL21(DE3) E. coli", "T2 sequence (P05050 with tags, fused parts or gaps)": "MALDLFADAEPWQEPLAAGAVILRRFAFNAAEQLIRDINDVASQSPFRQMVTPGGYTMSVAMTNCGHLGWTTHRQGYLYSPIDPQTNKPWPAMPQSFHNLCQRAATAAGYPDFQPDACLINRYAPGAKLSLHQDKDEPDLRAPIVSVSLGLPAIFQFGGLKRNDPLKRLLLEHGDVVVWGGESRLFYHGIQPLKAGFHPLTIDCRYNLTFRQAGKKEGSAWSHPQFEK", "test": "Ligand binding to AlkB-Fe++ confined inside ClyA-AS nanopore, single-channel ionic current recording", "settings": "−60 mV; for L2B ΔIRES % (ligand-induced current enhancement from L2): 150 mM NaCl, 15 mM Tris HCl pH 8.0, 28° C.; for L2B ΔIRES % (ligand-induced current enhancement from L2) / mean duration (toff) of ligand-induced events: ligand cis; for koff −60 mV / kon −60 mV: pH 8.0, 28° C.; for kon −60 mV: slope of event frequency vs concentration", "experimental": "as §1, §2, §3\n9, 872-877; Bleijlevens, B. et al. (2012) Biochem. 2012, 51, 3334-3341]."}, "N120D-AlkB-Fe^++": {"target": "T3, N120D-AlkB-Fe^++ (Escherichia coli, UniProt P05050, N120D)", "T3 construct": "additional alanine after the starting methionine (cloning residue, between Met1 and Leu2) (N); Strep-tag via glycine-serine-alanine linker (C); made in house; host or cells: pT7-SC1 plasmid; expression host not restated for the mutant", "T3 sequence (P05050 1-216 N120D)": "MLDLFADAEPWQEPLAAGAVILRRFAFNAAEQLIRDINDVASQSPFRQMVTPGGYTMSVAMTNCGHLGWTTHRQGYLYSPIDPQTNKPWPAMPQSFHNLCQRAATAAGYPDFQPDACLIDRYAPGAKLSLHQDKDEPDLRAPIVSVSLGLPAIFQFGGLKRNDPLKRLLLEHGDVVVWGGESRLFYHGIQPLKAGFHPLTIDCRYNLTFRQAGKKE", "test": "Ligand binding to N120D AlkB mutant confined inside ClyA-AS nanopore", "parameters": "species or system E. coli", "settings": "7.2 mM 2-OG, N=4"}}}
{"smiles": "NC(=O)c1ccc[n+]([C@@H]2O[C@H](COP(=O)([O-])OP(=O)(O)OC[C@H]3O[C@@H](n4cnc5c(N)ncnc54)[C@H](OP(=O)(O)O)[C@@H]3O)[C@@H](O)[C@H]2O)c1", "note": "[NADP+]", "values": [{"measurement": "DHFRtag:MTX blockades not responding to the ligand", "setting": "DHFRtag:MTX; NADP+ added in trans", "value": "Approximately 45%"}, {"measurement": "τM:N+ (dwell of NADP+ events)", "setting": "DHFRtag:MTX; −90 mV, NADP+ trans", "value": "102 ± 11", "unit": "ms"}, {"measurement": "koff −90 mV", "setting": "DHFRtag:MTX; −90 mV, pH 7.5, 28° C.", "value": "10 ± 1", "unit": "s⁻¹"}, {"measurement": "kon −90 mV", "setting": "DHFRtag:MTX; −90 mV, pH 7.5, 28° C.", "value": "2.1 ± 0.3 × 10^6 s^−1 M^−1"}, {"measurement": "L2B ΔIRES %", "setting": "DHFRtag:MTX; −90 mV, pH 7.5, 28° C., ligand trans, from L2", "value": "+4.7 ± 0.9%"}]}
{"smiles": "NC(=O)C[C@H](N)C(=O)O", "note": "[asparagine]", "values": [{"measurement": "Kd", "setting": "SBD1", "value": "470 ± 30", "unit": "nM"}, {"measurement": "kon", "setting": "SBD1; pH 7.5, read-out: kclosing", "value": "1.2e+07", "unit": "M⁻¹ s⁻¹"}, {"measurement": "koff", "setting": "SBD1; pH 7.5, read-out: kopening", "value": 9.4, "unit": "s⁻¹"}]}
{"smiles": "O=C(O)CCC(=O)O", "note": "[SUC, succinate]", "values": [{"measurement": "L2B ΔIRES % (ligand-induced current enhancement from L2)", "setting": "[1]", "value": "+2.1 ± 1.0%"}, {"measurement": "mean duration (toff) of ligand-induced events", "setting": "[1]", "value": "61 ± 11", "unit": "ms"}, {"measurement": "koff −60 mV", "setting": "[1]", "value": "16.6 ± 2.6", "unit": "s⁻¹"}, {"measurement": "kon −60 mV", "setting": "[1]", "value": "9.2 ± 1.3 × 10^2 s^−1 M^−1"}]}
{"smiles": "O=C(O)CCC(=O)C(=O)O", "note": "[2-OG, 2-oxoglutarate]", "values": [{"measurement": "L2B ΔIRES % (ligand-induced current enhancement from L2)", "setting": "[1]", "value": "+1.7 ± 1.2%"}, {"measurement": "mean duration (toff) of ligand-induced events", "setting": "[1]", "value": "1700 ± 500", "unit": "ms"}, {"measurement": "koff −60 mV", "setting": "[1]", "value": "0.66 ± 0.33", "unit": "s⁻¹"}, {"measurement": "kon −60 mV", "setting": "[1]", "value": "1.8 ± 0.3 × 10^3 s^−1 M^−1"}, {"measurement": "current transitions in N120D-AlkB-Fe++ blockades", "setting": "N120D-AlkB-Fe^++", "value": "did not induce current transitions"}]}
